{"source": "patent US7041701B2", "about": "“Triterpenoid derivatives” (Univerzita Palackeho V Olomouci, priority 2000, dated 2006)", "key": {"[1]": {"system": "human SK-N-AS neuroblastoma", "assay": "In vivo activity in xenotransplanted human neuroblastoma", "parameters": "species or system CD-1/Ctrl-1 nu/nu nude female mice", "conditions": "I.3 1 or 2 mg/mouse s.c. or i.p., 3×D1,2,5,6,9,10; SK-N-AS in nude mice (FIG. 2)", "description": "Human neuroblastoma SK-N-AS cell line was obtained from ATTC. The line was cultured in Dulbeco's modified essential medium with 4.5 g dextrose/l, 10% of foetal calf serum, 2 mM glutamine, 100 U/ml penicillin and […] streptomycin. For transplantation purposes, only the cells in log phase were used.\nCD-1/Ctrl-1 nu/nu nude female mice, 8 weeks old, 18–22 g weight were used in this study (IffaCredo, France). Animals were inoculated with 5.10^6 tumour cells subcutaneously into right inquinal region. Following transplantation, tumor growth was measured in both the control/vehicle and the treated groups using calipers. Tumor volume (TV) was calculated as follows: TV=(a^2×b)/2, where a is width and b is length The statistical significance was evaluated using a […].\nCisplatin (Platidiam 10 inj, sicc., Lachema, Czech Republic) was used as a control drug in this experiment. It was diluted in apyrogenic water and applied to animals in a final volume of 0.18 ml subcutaneously at day 1.\nI.3 was synthesised as described above. It was suspended at 10 mg/ml in 5% dextrose and pH was adjusted to 8.0 with sodium hydroxide. vehicle: 5% dextrose with pH adjusted to 8.0 with sodium hydroxide. […]"}, "[2]": {"system": "A549 lung cancer cells", "assay": "Apoptosis morphology by scanning electron microscopy", "type": "cell-based, human", "conditions": "A549, 2 μM, 12 hours, scanning electron microscopy (FIG. 1)", "description": "To analyse the mechanisms of betulinine-induced cytotoxicity, it is important to distinguish apoptosis from the other major form of cell death, necrosis. Finally, at the tissue level, apoptosis produces little or no inflammation, since shrunken portions of the cell are engulfed by the neighbouring cells, especially macrophages, rather than being released into the extracellular fluid. In contrast, in necrosis, cellular contents are released into the extracellular fluid, and thus have an irritant affect on the nearby cells, causing inflammation. […] Thirdly, at the molecular level, a number of biochemical processes play an important role in the induction of apoptosis. However, the majority of them are not well understood, and they result in activation of proteases and nucleases, which finally destruct key biological macromolecules—proteins and DNA. For the detection of apoptotic versus necrotic modes of cell death, the morphology was assessed by scanning electron microscopy.\nA549 cell line was cultured on tissue culture treated glass coverslips in 6-well culture plates with or without 2 μM concentration of I.3 or betulinic acid at 37° C. and 5% CO2 for 12 hours. Following incubation, the coverslips were washed in Hank's buffered salt solution and processed as described below.\nCells were fixed in 2% glutaraldehyde/PBS overnight at 4° C., dried and covered with gold under vacuum. […]"}, "[3]": {"system": "Rb protein", "assay": "Rb protein phosphorylation state, SDS-PAGE/Western blot in CEM cells", "type": "cell-based, human", "description": "Since Rb protein contains multiple phosphorylation sites for CDKs, its phosphorylated form has molecular weight about 110 kDa, while the molecular weight of hypophosphorylated protein is only 105 kDa This small difference in molecular weight is enough to separate both forms by conventional SDS-PAGE electrophoresis.\nCEM cells were cultured in Dulbeco's modified essential medium with 4.5 g dextrose/l, 10% of foetal calf serum, 2 mM glutamine, 100 U/ml penicillin and 100 μg/ml streptomycin with/without below indicated concentrations of betulkic acid (BA) or I.3. At selected time points, cells were harvested, washed in ice cold Hank's balanced salt solution and solubilized on ice using the SDS-PAGE sample buffer containing protease and phosphatase inhibitors (10 μg/ml of leupeptin, 10 μg/ml of aprotinin, 10 μg/ml of soybean trypsin inhibitor, 100 μmol of benzamide, 1 mM of sodium vanadate, 1 mM of NaF, 1 mM of phenylphosphate) and boiled immediately.\nTotal cellular proteins (100 μg/well) were separated on SDS-PAGE electrophoresis, blotted on polyvinyldifluoride membranes and total Rb protein, including proteolytic fragment(s) were detected using a pRb monoclonal antibody (Oncogene, Germany, Rb(AS5), Cat# OP66 Rev 2 Sep. 1996 EB, Clone LM95.1) and visualized by chemilumniuscence (ECL-Westeg Blotting System, Amersham). Details of the Western blot technique are described in Ausubel, F. M., Brent, R., Kingston, P E., Moore, D. D., Seidman, J. G., Smith, J. A., Struhl, K (Eds): Short Protocols-in Molecular Biology, 2nd edition, John Wiley & Sons, New York, Chichester, Brisbane, Toronto, Singapore, 1992, page 10–33–10–35."}}}
{"smiles": "CC(=O)OC[C@@]1(C(=O)O)CC[C@]2(C)[C@H](CC[C@@H]3[C@@]4(C)CC[C@H](OC(C)=O)C(C)(C)[C@@H]4CC[C@]32C)C1=O", "note": "[I.3, 3β,28-diacetoxy-18-oxo-19,20,21,29,30-pentanorlupan-22-oic acid]", "values": [{"measurement": "tumor growth (tumor volume)", "setting": "[1]", "result": "no tumor growth"}, {"measurement": "morphologic markers of apoptosis", "setting": "[2]", "result": "cytoplasmatic blebbing, cellular fragmentation and formation of apoptotic bodies"}, {"measurement": "time to appearance of hypophosphorylated form of Rb", "setting": "[3]; 7 μM", "result": 2, "unit": "h"}, {"measurement": "time to appearance of hypophosphorylated form of Rb", "setting": "[3]; 20 μM", "result": 0.25, "unit": "h"}, {"measurement": "cleavage of Rb protein (42 kDa fragment, caspase activation)", "setting": "[3]; Western blot", "result": "time and concentration dependent appearance of an immunoreactive fragment of Rb protein"}, {"measurement": "dephosphorylation of Rb protein (shift 110 kDa to 105 kDa)", "setting": "[3]; Western blot (FIG. 3)", "result": "rapidly dephosphorylated"}]}
